From patent US9676732B2, “Ethynyl derivatives” (Hoffmann-La Roche Inc., priority 2013, dated 2017)

Target: human mGlu4 receptor (Homo sapiens (Human), UniProt Q14833)
Assay: Ca2+ mobilization in vitro assay on recombinant human mGlu4 expressed in HEK293 cells (mGlu4 PAM)
Type: cell-based
Settings: for EC50: HEK293 cells stably expressing human mGlu4, L-AP4 added at EC20, read-out: EC50 (nM) mGlu4PAM; for Eff. (%): maximal response in % of the maximal stimulatory effect obtained with saturating concentrations of L-AP4
Procedure: Determination of EC50 Values Using a Ca2+ Mobilization In Vitro Assay on Recombinant Human mGlu4 Expressed in HEK293 Cells:
A monoclonal HEK-293 cell line stably transfected with a cDNA encoding for the human mGlu4 receptor was generated; for the work with mGlu4 Positive Allosteric Modulators (PAMs), a cell line with low receptor expression levels and low constitutive receptor activity was selected to allow the differentiation of agonistic versus PAM activity. Cells were cultured according to standard protocols (Freshney, 2000) in Dulbecco's Modified Eagle Medium with high glucose supplemented with 1 mM glutamine, 10% (vol/vol) heat-inactivated bovine calf serum, Penicillin/Streptomycin, 50 μg/ml hygromycin and 15 μg/ml blasticidin (all cell culture reagents and antibiotics from Invitrogen, Basel, Switzerland).
About 24 hrs before an experiment, 5×10^4 cells/well were seeded in poly-D-lysine coated, black/clear-bottomed 96-well plates. The cells were loaded with 2.5 μM Fluo-4AM in loading buffer (1×HBSS, 20 mM HEPES) for 1 hr at 37° C. and washed five times with loading buffer. The cells were transferred into a Functional Drug Screening System 7000 (Hamamatsu, Paris, France), and 11 half logarithmic serial dilutions of test compound at 37° C. were added and the cells were incubated for 10-30 min. with on-line recording of fluorescence. Following this pre-incubation step, the agonist (2S)-2-amino-4-phosphonobutanoic acid (L-AP4) was added to the cells at a concentration corresponding to EC20 with on-line recording of fluorescence; in order to account for day-to-day variations in the responsiveness of cells, the EC20 of L-AP4 was determined immediately ahead of each experiment by recording of a full dose-response curve of L-AP4.
Responses were measured as peak increase in fluorescence minus basal (i.e. fluorescence without addition of L-AP4), normalized to the maximal stimulatory effect obtained with saturating concentrations of L-AP4. Graphs were plotted with the % maximal stimulatory using XLfit, a curve fitting program that iteratively plots the data using Levenburg Marquardt algorithm. The single site competition analysis equation used was y=A+((B−A)/(1+((x/C)D))), where y is the % maximal stimulatory effect, A is the minimum y, B is the maximum y, C is the EC50, x is the log 10 of the concentration of the competing compound and D is the slope of the curve (the Hill Coefficient). From these curves the EC50 (drug concentration at which 50% of the maximal receptor activation was achieved), the Hill coefficient as well as the maximal response in % of the maximal stimulatory effect obtained with saturating concentrations of L-AP4 were calculated (see FIG. 1).
A depression of the signal observed after addition of the EC20 concentration of L-AP4 was indicative of an inhibitory activity of the test compound. • FIG. 1: Illustration of the experimental outline for mGlu4 PAM Ca2+ mobilization screening assay and the determination of EC50 and % Emax values.

human mGlu4 receptor, sequence (Q14833 33-912): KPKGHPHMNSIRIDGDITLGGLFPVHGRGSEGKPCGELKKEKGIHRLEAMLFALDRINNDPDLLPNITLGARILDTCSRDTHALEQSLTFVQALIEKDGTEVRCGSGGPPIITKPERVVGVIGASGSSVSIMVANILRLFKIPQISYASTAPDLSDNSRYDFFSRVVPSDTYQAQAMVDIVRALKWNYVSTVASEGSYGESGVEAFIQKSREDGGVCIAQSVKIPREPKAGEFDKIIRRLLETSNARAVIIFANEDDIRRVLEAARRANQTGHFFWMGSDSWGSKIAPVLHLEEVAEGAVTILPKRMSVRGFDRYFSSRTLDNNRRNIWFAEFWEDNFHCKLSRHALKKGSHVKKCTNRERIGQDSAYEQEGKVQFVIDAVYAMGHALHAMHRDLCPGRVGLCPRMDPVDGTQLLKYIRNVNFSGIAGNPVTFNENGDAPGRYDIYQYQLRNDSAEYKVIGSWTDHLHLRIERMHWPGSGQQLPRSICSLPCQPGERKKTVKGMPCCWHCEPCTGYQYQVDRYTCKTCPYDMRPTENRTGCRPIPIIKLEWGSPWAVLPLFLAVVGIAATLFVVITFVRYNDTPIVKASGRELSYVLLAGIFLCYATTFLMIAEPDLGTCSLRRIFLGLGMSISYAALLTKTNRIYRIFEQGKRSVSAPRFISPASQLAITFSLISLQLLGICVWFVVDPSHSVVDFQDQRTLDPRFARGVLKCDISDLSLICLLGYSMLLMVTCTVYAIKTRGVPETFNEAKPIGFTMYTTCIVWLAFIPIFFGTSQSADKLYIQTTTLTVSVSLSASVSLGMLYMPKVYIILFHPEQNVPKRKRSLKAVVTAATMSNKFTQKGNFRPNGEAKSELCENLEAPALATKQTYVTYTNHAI

Compound | EC50 [nM] | Eff. (%)
Cn1c(=O)n(-c2ccc(C#Cc3ccccc3)cc2Cl)c(=O)c2ccccc21 [Example 1, 3-[2-Chloro-4-(2-phenylethynyl)phenyl]-1-methyl-quinazoline-2,4-dione] | 150 | 102
Cc1cccc2c(=O)n(-c3ccc(C#Cc4ccccc4)cc3Cl)c(=O)n(C)c12 [Example 2, 3-[2-Chloro-4-(2-phenylethynyl)phenyl]-1,8-dimethyl-quinazoline-2,4-dione] | 94 | 99
Cn1c(=O)n(-c2ccc(C#Cc3ccccc3)cc2Cl)c(=O)c2cccc(Cl)c21 [Example 3, 8-Chloro-3-[2-chloro-4-(2-phenylethynyl)phenyl]-1-methyl-quinazoline-2,4-dione] | 137 | 93
Cn1c(=O)n(-c2ccc(C#Cc3ccccc3)cc2Cl)c(=O)c2ccc(Cl)cc21 [Example 4, 7-Chloro-3-[2-chloro-4-(2-phenylethynyl)phenyl]-1-methyl-quinazoline-2,4-dione] | 220 | 120
Cc1ccc2c(=O)n(-c3ccc(C#Cc4ccccc4)cc3Cl)c(=O)n(C)c2c1 [Example 5, 3-[2-Chloro-4-(2-phenylethynyl)phenyl]-1,7-dimethyl-quinazoline-2,4-dione] | 93 | 108
O=c1[nH]c2ncccc2c(=O)n1-c1ccc(C#Cc2ccccc2)cc1Cl [Example 6, 3-[2-Chloro-4-(2-phenylethynyl)phenyl]-1H-pyrido[2,3-d]pyrimidine-2,4-dione] | 179 | 104
Cn1c(=O)n(-c2ccc(C#Cc3ccccc3)cc2Cl)c(=O)c2cccnc21 [Example 7, 3-[2-Chloro-4-(2-phenylethynyl)phenyl]-1-methyl-pyrido[2,3-d]pyrimidine-2,4-dione] | 222 | 101
CCc1cccc2c(=O)n(-c3ccc(C#Cc4ccccc4)cc3Cl)c(=O)n(C)c12 [Example 8, 3-[2-Chloro-4-(2-phenylethynyl)phenyl]-8-ethyl-1-methyl-quinazoline-2,4-dione] | 65 | 100
Cn1c(=O)n(-c2ccc(C#Cc3ccccc3)cc2Cl)c(=O)c2ncccc21 [Example 9, 3-[2-Chloro-4-(2-phenylethynyl)phenyl]-1-methyl-pyrido[3,2-d]pyrimidine-2,4-dione] | 308 | 167
Cn1c(=O)n(-c2ccc(C#Cc3ccccc3)cc2Cl)c(=O)c2cnccc21 [Example 10, 3-[2-Chloro-4-(2-phenylethynyl)phenyl]-1-methyl-pyrido[4,3-d]pyrimidine-2,4-dione] | 399 | 180
Cn1cnc2c1c(=O)n(-c1ccc(C#Cc3ccccc3)cc1Cl)c(=O)n2C [Example 11, 1-[2-Chloro-4-(2-phenylethynyl)phenyl]-3,7-dimethyl-purine-2,6-dione] | 175 | 122
O=c1c2cccc3c2n(c(=O)n1-c1ccc(C#Cc2ccccc2)cc1Cl)CC3 [Example 12, 2-(2-Chloro-4-(phenylethynyl)phenyl)-5,6-dihydro-1H-pyrrolo[3,2,1-ij]quinazoline-1,3(2H)-dione] | 80 | 106
CC(C)n1c(=O)n(-c2ccc(C#Cc3ccccc3)cc2Cl)c(=O)c2ccccc21 [Example 13, 3-[2-Chloro-4-(2-phenylethynyl)phenyl]-1-isopropyl-quinazoline-2,4-dione] | 57 | 115
CCn1c(=O)n(-c2ccc(C#Cc3ccccc3)cc2Cl)c(=O)c2ccccc21 [Example 14, 3-[2-Chloro-4-(2-phenylethynyl)phenyl]-1-ethyl-quinazoline-2,4-dione] | 172 | 97
Cn1c(=O)n(-c2ccc(C#Cc3ccccc3)cc2Cl)c(=O)c2nccnc21 [Example 15, 3-[2-Chloro-4-(2-phenylethynyl)phenyl]-1-methyl-pteridine-2,4-dione] | 110 | 111
